Measured values as given in patent US8530648B2, “Diaza-spiro[5.5]undecanes” (Novartis AG, priority 2009, dated 2013).
pKd, pKi: −log10 of the molar value.

Assays:
hOx1R [1] = molecular target: T1, hOx1R (Homo sapiens (Human), UniProt O43613); experiment: Calcium accumulation in cells (FLIPR), hOx1R; type: cell-based; settings: for pKi: inhibition of orexin A induced calcium accumulation, Cheng and Prusoff correction
How it was run: (§1)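 Cells expressing human orexin 1 or 2 receptor, serum-deprived overnight, loaded with Fluo-4-AM (2 μM) plus 0.1 mM probenecid, pH 7.4 HEPES buffer with 1% BSA.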

hOx2R [2] = molecular target: T2, hOx2R (Homo sapiens (Human), UniProt O43614); experiment: Calcium accumulation in cells (FLIPR), hOx2R; type: cell-based; settings: inhibition of orexin A induced calcium accumulation, Cheng and Prusoff correction
How it was run: as §1

hOx1R [3] = molecular target: T1, hOx1R; experiment: Radioligand binding assay, [3H]-SB649868, hOx1R; settings: radioligand [3H]-SB649868, competition
Procedure: (§2) For crude cell membrane preparations, cells (CHO, Chinese hamster ovary or HEK, human embryonic kidney) expressing human orexin 1 or human orexin 2 receptors, were washed with HEPES (10 mM, pH 7.5), scraped off the culture plates with the same buffer, and centrifuged at 4° C. for 5 min at 2500×g. The cell pellet was either stored at −80° C. or used directly. Before the experiments, cell membranes were re-suspended in binding assay buffer (10 mM HEPES, 0.5% (w/v) bovine serum albumin, pH 7.5) by homogenisation with a Polytron homogeniser at 50 Hz for 20 s. Cell membranes were also used as made available by commercial providers.
(§3) Bound radioactivity was measured, and data were analysed with the program XLFIT or Graphpad Prism. Protein concentration was determined according to the Bradford/BioRad Protein Assay Kit.
(§4) In competition experiments, cell homogenates (150 μl) were incubated in assay buffer (10 mM HEPES, pH 7.5, 0.5% (w/v) bovine serum albumin, 5 mM MgCl2, 1 mM CaCl2, and tween 0.05%) for 1 h at room temperature with about 1 nM of the radioligand [^3H]-SB649868, 66 Ci/mmole, 50 μl), and with various concentrations of compounds of the invention (50 μl) in triplicates; non-specific binding was determined in the presence of almorexant (10 μM).

hOx2R [4] = molecular target: T2, hOx2R; experiment: Radioligand binding assay, [3H]-SB649868, hOx2R; settings: radioligand [3H]-SB649868, competition
Procedure: as §2, §3, §4

T1 sequence (O43613 whole entry): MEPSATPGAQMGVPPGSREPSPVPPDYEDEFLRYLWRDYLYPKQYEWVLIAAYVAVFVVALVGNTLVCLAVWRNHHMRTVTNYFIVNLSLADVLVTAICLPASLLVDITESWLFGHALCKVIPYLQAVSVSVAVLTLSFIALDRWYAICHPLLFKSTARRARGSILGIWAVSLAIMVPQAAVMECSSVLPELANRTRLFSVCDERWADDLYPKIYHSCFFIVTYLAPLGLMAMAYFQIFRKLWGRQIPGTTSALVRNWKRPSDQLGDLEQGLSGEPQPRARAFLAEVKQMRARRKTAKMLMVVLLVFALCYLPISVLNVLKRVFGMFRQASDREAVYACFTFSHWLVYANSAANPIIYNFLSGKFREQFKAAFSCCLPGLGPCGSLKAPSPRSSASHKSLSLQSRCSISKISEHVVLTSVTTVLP
T2 sequence (O43614 whole entry): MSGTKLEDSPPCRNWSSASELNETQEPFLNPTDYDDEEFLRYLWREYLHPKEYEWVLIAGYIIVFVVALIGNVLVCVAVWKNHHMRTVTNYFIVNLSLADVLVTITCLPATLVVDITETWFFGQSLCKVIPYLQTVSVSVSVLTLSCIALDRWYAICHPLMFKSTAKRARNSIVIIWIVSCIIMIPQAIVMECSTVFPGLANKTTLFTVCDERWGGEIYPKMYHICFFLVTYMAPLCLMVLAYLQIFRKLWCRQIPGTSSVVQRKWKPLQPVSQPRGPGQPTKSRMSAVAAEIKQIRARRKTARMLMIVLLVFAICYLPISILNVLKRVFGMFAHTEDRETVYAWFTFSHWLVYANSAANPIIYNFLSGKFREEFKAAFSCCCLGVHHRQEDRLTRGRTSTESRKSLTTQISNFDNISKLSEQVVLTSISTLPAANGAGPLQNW

pKi (hOx1R [1])	pKi (hOx2R [2])	pKd (hOx1R [3])	pKd (hOx2R [4])	inhibition at 10 µM (hOx1R [1]; measured at a concentration of 10 μM of compound)	Structure (SMILES)
6.65	8.10	6.37	7.44	–	O=C1N(Cc2ncoc2-c2ccccc2)CCCC12CCN(c1cnc3ccccc3n1)CC2 [Example 95, 2-((5-phenyloxazol-4-yl)methyl)-9-(quinoxalin-2-yl)-2,9-diazaspiro[5.5]undecan-1-one]
7.03	8.15	6.64	7.20	–	Cc1cnc(-c2cccc(CN3CCCC4(CCN(c5cnc6ccccc6n5)CC4)C3=O)c2)o1 [Example 147, 2-(3-(5-methyloxazol-2-yl)benzyl)-9-(quinoxalin-2-yl)-2,9-diazaspiro[5.5]undecan-1-one]
5.89	7.07	5.42	6.25	–	COc1cccc(-n2cncc2CN2CCCC3(CCN(c4cnc5ccccc5n4)CC3)C2=O)c1 [Example 111, 2-((1-(3-methoxyphenyl)-1H-imidazol-5-yl)methyl)-9-(quinoxalin-2-yl)-2,9-diazaspiro[5.5]undecan-1-one]
6.02	7.15	6.03	6.91	–	O=C1N(Cc2c[nH]c3ccccc23)CCCC12CCN(c1ncc3ccccc3n1)CC2 [Example 169, 2-((1H-indol-3-yl)methyl)-9-(quinazolin-2-yl)-2,9-diazaspiro[5.5]undecan-1-one]
6.18	7.09	5.78	6.82	–	O=C1N(Cc2c[nH]c3ccccc23)CCCC12CCN(c1cc3nccnc3cn1)CC2 [Example 167, 2-((1H-indol-3-yl)methyl)-9-(pyrido[4,3-b]pyrazin-7-yl)-2,9-diazaspiro[5.5]undecan-1-one]
5.94	7.01	5.63	5.83	–	O=C1N(Cc2cccc3nonc23)CCCC12CCN(c1cnc3ccccc3n1)CC2 [Example 77, 2-(benzo[c][1,2,5]oxadiazol-4-ylmethyl)-9-(quinoxalin-2-yl)-2,9-diazaspiro[5.5]undecan-1-one]
6.01	7.14	< 5.00	6.80	–	Cc1ccc(-n2nccn2)cc1CN1CCCC2(CCN(c3cnc4ccccc4n3)CC2)C1=O [Example 128, 2-(2-methyl-5-(2H-1,2,3-triazol-2-yl)benzyl)-9-(quinoxalin-2-yl)-2,9-diazaspiro[5.5]undecan-1-one]
5.81	7.16	6.03	7.08	–	O=C1N(Cc2c[nH]c3ccccc23)CCCC12CCN(c1nc3ccccc3[nH]1)CC2 [Example 152, 2-((1H-indol-3-yl)methyl)-9-(1H-benzo[d]imidazol-2-yl)-2,9-diazaspiro[5.5]undecan-1-one]
6.18	7.09	5.80	6.42	–	Cc1ccc2oc(N3CCC4(CCCC(=O)N4Cc4cccc5[nH]ccc45)CC3)nc2c1 [Example 140, 1-((1H-indol-4-yl)methyl)-9-(5-methylbenzo[d]oxazol-2-yl)-1,9-diazaspiro[5.5]undecan-2-one]
–	7.09	5.29	6.20	33%	O=C1N(Cc2cccc3c2OCCO3)CCCC12CCN(c1nccc3occc13)CC2 [Example 82, 2-((2,3-dihydrobenzo[b][1,4]dioxin-5-yl)methyl)-9-(furo[3,2-c]pyridin-4-yl)-2,9-diazaspiro[5.5]undecan-1-one]
6.24	7.17	6.09	6.95	–	O=C1N(Cc2c[nH]c3ccccc23)CCCC12CCN(c1ccc3ccccc3n1)CC2 [Example 160, 2-((1H-indol-3-yl)methyl)-9-(quinolin-2-yl)-2,9-diazaspiro[5.5]undecan-1-one]
6.01	7.72	5.46	6.57	–	O=C1N(Cc2ccccc2-c2ncco2)CCCC12CCN(c1cnc3ccccc3n1)CC2 [Example 149, 2-(2-(oxazol-2-yl)benzyl)-9-(quinoxalin-2-yl)-2,9-diazaspiro[5.5]undecan-1-one]
6.13	7.35	5.68	6.73	–	O=C1N(Cc2ccccc2-c2ccco2)CCCC12CCN(c1cnc3ccccc3n1)CC2 [Example 150, 2-(2-(furan-2-yl)benzyl)-9-(quinoxalin-2-yl)-2,9-diazaspiro[5.5]undecan-1-one]
6.37	7.30	6.01	6.65	–	Cc1nc(-c2cccc(CN3CCCC4(CCN(c5cnc6ccccc6n5)CC4)C3=O)c2)no1 [Example 98, 2-(3-(5-methyl-1,2,4-oxadiazol-3-yl)benzyl)-9-(quinoxalin-2-yl)-2,9-diazaspiro[5.5]undecan-1-one]

Further lines, the compound ahead of its results:

Structure (SMILES)	pKi (hOx1R [1])	pKi (hOx2R [2])	pKd (hOx1R [3])	pKd (hOx2R [4])	inhibition at 10 µM (hOx1R [1]; measured at a concentration of 10 μM of compound)
Cc1noc(-c2ccccc2CN2CCCC3(CCN(c4cnc5ccccc5n4)CC3)C2=O)n1 [Example 39, 2-(2-(3-methyl-1,2,4-oxadiazol-5-yl)benzyl)-9-(quinoxalin-2-yl)-2,9-diazaspiro[5.5]undecan-1-one]	5.85	7.60	5.56	6.61	–
O=C1N(Cc2c[nH]c3ccccc23)CCCC12CCN(c1cnc3ccccc3c1)CC2 [Example 48, 2-((1H-indol-3-yl)methyl)-9-(quinolin-3-yl)-2,9-diazaspiro[5.5]undecan-1-one]	5.98	7.49	5.74	6.83	–
O=C1N(Cc2ccccc2-n2nccn2)CCCC12CCN(c1cnc3ccccc3n1)CC2 [Example 49, 2-(2-(2H-1,2,3-triazol-2-yl)benzyl)-9-(quinoxalin-2-yl)-2,9-diazaspiro[5.5]undecan-1-one]	5.68	7.41	5.49	6.94	–
O=C1N(Cc2cccc(-n3ccnn3)c2)CCCC12CCN(c1cnc3ccccc3n1)CC2 [Example 46, 2-(3-(1H-1,2,3-triazol-1-yl)benzyl)-9-(quinoxalin-2-yl)-2,9-diazaspiro[5.5]undecan-1-one]	5.96	6.61	5.89	6.33	–
O=C1CCCC2(CCN(c3cnc4ccccc4n3)CC2)N1Cc1c[nH]c2ccccc12 [Example 43, 1-((1H-indol-3-yl)methyl)-9-(quinoxalin-2-yl)-1,9-diazaspiro[5.5]undecan-2-one]	6.63	7.33	6.69	6.71	–
O=C1N(Cc2cccc(-c3ncccn3)c2)CCCC12CCN(c1cnc3ccccc3n1)CC2 [Example 61, 2-(3-(pyrimidin-2-yl)benzyl)-9-(quinoxalin-2-yl)-2,9-diazaspiro[5.5]undecan-1-one]	6.43	7.21	5.69	6.40	–
O=C1N(Cc2cccc(-n3cccn3)c2)CCCC12CCN(c1cnc3ccccc3n1)CC2 [Example 60, 2-(3-(1H-pyrazol-1-yl)benzyl)-9-(quinoxalin-2-yl)-2,9-diazaspiro[5.5]undecan-1-one]	6.41	7.31	6.14	6.72	–
O=C1N(Cc2cccc(-c3cnccn3)c2)CCCC12CCN(c1cnc3ccccc3n1)CC2 [Example 65, 2-(3-(pyrazin-2-yl)benzyl)-9-(quinoxalin-2-yl)-2,9-diazaspiro[5.5]undecan-1-one]	6.45	7.64	5.73	6.21	–
O=C1N(Cc2cccc(-n3nccn3)c2)CCCC12CCN(c1cnc3ccccc3n1)CC2 [Example 47, 2-(3-(2H-1,2,3-triazol-2-yl)benzyl)-9-(quinoxalin-2-yl)-2,9-diazaspiro[5.5]undecan-1-one]	6.80	7.89	6.50	7.47	–
Cc1nc(CN2CCCC3(CCN(c4cnc5ccccc5n4)CC3)C2=O)c(-c2cccc(F)c2)s1 [Example 73, 2-((5-(3-fluorophenyl)-2-methylthiazol-4-yl)methyl)-9-(quinoxalin-2-yl)-2,9-diazaspiro[5.5]undecan-1-one]	6.36	7.26	5.94	6.66	–
O=C1N(Cc2ccnc(-n3cccn3)c2)CCCC12CCN(c1cnc3ccccc3n1)CC2 [Example 63, 2-((2-(1H-pyrazol-1-yl)pyridin-4-yl)methyl)-9-(quinoxalin-2-yl)-2,9-diazaspiro[5.5]undecan-1-one]	6.05	7.08	5.42	6.04	–
Cn1ccc2c(CN3C(=O)CCCC34CCN(c3cnc5ccccc5n3)CC4)cccc21 [Example 44, 1-((1-methyl-1H-indol-4-yl)methyl)-9-(quinoxalin-2-yl)-1,9-diazaspiro[5.5]undecan-2-one]	7.19	7.32	7.25	6.90	–
